Structures are written as SMILES. Calls of active or inactive are those of the source. The calls are words filed in the database; no cut-off is given here.

Our source for the Activity, inhibition and Kd values is ChEMBL document CHEMBL3108714, “Bisphenol A binds to Ras proteins and competes with guanine nucleotide exchange: implications for GTPase-selective antagonists” (J Med Chem, 2013).

In test [1] the test system is HeLa. Nature of the test: Induction of apoptosis in human HeLa cells assessed as increase in cellular degeneration at >100 uM after 24 hrs by DAPI-staining-based microscopic analysis. Format: functional, cell-based.
Test [2] has as its target T1, GTP-binding protein Rheb (Homo sapiens, UniProt Q15382). Nature of the test: Inhibition of RHEB in human HeLa cells assessed as decrease in phospho-S6 protein level at 100 uM after 4 hrs by Western blotting analysis. It counts as cell-based. For orientation: Immunoblotting shows a protein as a band on a membrane.
Test [3] has as its target T1, GTP-binding protein Rheb. Nature of the test: Binding affinity to full-length Rheb (unknown origin) by NMR spectroscopic analysis.
Test [4] concerns the target GTPase KRas (Homo sapiens, UniProt P01116). Nature of the test: Binding affinity to human K-RAS by NMR analysis.
In test [5] the test system is HeLa. Nature of the test: Induction of apoptosis in human HeLa cells assessed as increase in cellular degeneration at 25 to 250 uM after 4 hrs by MTT assay. Format: functional, cell-based. (Tetrazolium assays rely on reduction of a dye to a coloured formazan, in cell work by metabolically active cells.)

T1 sequence (Q15382 whole entry): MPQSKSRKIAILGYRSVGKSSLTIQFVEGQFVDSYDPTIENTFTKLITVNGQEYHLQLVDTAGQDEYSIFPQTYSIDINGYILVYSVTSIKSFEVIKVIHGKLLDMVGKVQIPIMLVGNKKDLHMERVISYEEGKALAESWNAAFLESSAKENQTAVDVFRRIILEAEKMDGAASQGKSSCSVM

In general, Kd refers to the equilibrium constant for the complex coming apart. As to `CC(C)(c1ccc(O)cc1)c1ccc(O)cc1` [BISPHENOL A], the result in test [1] was Active. The inhibition entry in test [2] was “inactive”. The Kd was 1800 µM in test [3] and 600 µM in test [4].
In the case of `Oc1ccc(-c2ccc(O)cc2)cc1`, in test [5], the result was Active. Besides, the inhibition result in test [2] was “Active”. This compound yielded a Kd in test [3] of 1500 µM. Also, the inhibition result in test [4] was “inactive”.
